The results in this text go back to ChEMBL document CHEMBL1201862, “PubChem BioAssay data set” (2004).

Each structure is given as a SMILES string.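 These data come from cells grown in 96-well plates and exposed to compound for 48 hours at five concentrations. GI50 is the concentration that inhibits growth by half.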 Activity calls are given as the source filed them. No stated cut-off is given here; in the data, active = GI50 up to about 1.1 µM and inactive = higher.

Some test systems named below: COLO 205; HT-29; NCI-H460; NCI-H226; OVCAR-4; HOP-92; A498; RXF 393; K562; MDA-MB-231; MDA-N; TK-10; HCT-15; SF-295; HL-60; NCI-H23; OVCAR-3; OVCAR-5; MOLT-4; SK-MEL-2.
Holding throughout (assay): NCI anticancer screen, dose series, 48 h

Turning to `CCNC(=S)NNC(=O)CSc1nc2ccc(I)cc2c(=O)n1Cc1ccccc1`, the GI50 was 25.7 µM (inactive) with COLO 205; 18.1 µM (inactive) in the assay on HT-29; 12.6 µM (inactive) with NCI-H460; 10.5 µM (inactive) in the assay with NCI-H226; 10.8 µM (inactive) in the assay on OVCAR-4; 17.3 µM (inactive) in the assay with HOP-92. The GI50 in the assay with A498 was 14.5 µM (inactive); with RXF 393 it was 11.8 µM (inactive); in the assay on K562, 10.6 µM (inactive); in the assay with MDA-MB-231, 41.5 µM (inactive); in the assay on MDA-N, 13.5 µM (inactive); in the assay on TK-10, > 51.2 µM (inactive). The GI50 is 14.7 µM in the assay on HCT-15; 25.4 µM (inactive) with SF-295; 1.81 µM (inactive) in the assay with HL-60; 21.6 µM (inactive) with NCI-H23; 18.2 µM (inactive) in the assay on OVCAR-3; > 100 µM (inactive) in the assay with OVCAR-5. The GI50 in the assay on MOLT-4 is 7.48 µM (inactive); in the assay with SK-MEL-2, 29.4 µM (inactive).

As for `O=CN/C=C/c1cccc(O)c1`, the GI50 was > 77.3 µM (inactive) in the assay with COLO 205; 50.4 µM (inactive) in the assay on HT-29; 43.1 µM (inactive) in the assay with NCI-H460; 56.5 µM (inactive) in the assay with NCI-H226; 61.4 µM (inactive) in the assay on OVCAR-4; 55.2 µM (inactive) in the assay with HOP-92. In addition, the GI50 was > 64.3 µM (inactive) in the assay with A498; 60 µM (inactive) in the assay on RXF 393; > 75.7 µM (inactive) with K562; 49.8 µM (inactive) in the assay on MDA-MB-231; 46 µM (inactive) in the assay on MDA-N; 88.3 µM (inactive) in the assay with TK-10. Also, the GI50 in the assay with HCT-15 is 72.1 µM; with SF-295, 48.8 µM (inactive); with HL-60, 38.5 µM (inactive); with NCI-H23, 52.4 µM (inactive); with OVCAR-3, > 100 µM (inactive); in the assay with OVCAR-5 it was 74.6 µM (inactive). Further, the GI50 with MOLT-4 was 59.8 µM (inactive); in the assay on SK-MEL-2, 58.7 µM (inactive).

On to `COc1cccc(N2C(=O)C3c4[nH]c5ccc(C)cc5c4C4CCC(C)CC4C3C2=O)c1` (centres undefined), for which the GI50 is > 100 µM (inactive) in the assay on COLO 205; > 100 µM (inactive) in the assay on HT-29; > 100 µM (inactive) in the assay with NCI-H460; > 100 µM (inactive) in the assay with NCI-H226; 34 µM (inactive) in the assay on HOP-92; 49 µM (inactive) with A498. The GI50 in the assay with RXF 393 was 18.3 µM (inactive); in the assay on K562, 30.3 µM (inactive); with MDA-MB-231, 26.5 µM (inactive); in the assay on MDA-N, > 100 µM (inactive); in the assay with TK-10 it was 36.1 µM (inactive); in the assay on HCT-15, more than 100 µM. In addition, the GI50 was 35 µM (inactive) in the assay with SF-295; 10.6 µM (inactive) with HL-60; > 100 µM (inactive) in the assay on NCI-H23; > 100 µM (inactive) in the assay on OVCAR-3; > 100 µM (inactive) in the assay with OVCAR-5; > 10 µM (inactive) in the assay with MOLT-4. Also, the GI50 in the assay on SK-MEL-2 is 24.5 µM (inactive).

For the compound `Cc1ccsc1C(=S)Nc1ccc(Cl)c(/C=N/OC(C)C)c1`, the GI50 in the assay on COLO 205 is 18.7 µM (inactive); with HT-29, 27.5 µM (inactive); in the assay on NCI-H460, 32.7 µM (inactive); with NCI-H226, 31.3 µM (inactive); in the assay with OVCAR-4, 14.8 µM (inactive); with HOP-92 it was > 100 µM (inactive). The GI50 in the assay with A498 was 64 µM (inactive); in the assay with RXF 393, 20.5 µM (inactive); with MDA-MB-231, 41.2 µM (inactive); in the assay with MDA-N it was 37.8 µM (inactive); in the assay on TK-10 it was 65.3 µM (inactive); in the assay on HCT-15 it was 15.5 µM. The GI50 in the assay on SF-295 is 30.1 µM (inactive); in the assay on HL-60, 10.3 µM (inactive); in the assay on NCI-H23, 20.1 µM (inactive); in the assay on OVCAR-3, 44.8 µM (inactive); in the assay on OVCAR-5, > 100 µM (inactive); in the assay with MOLT-4, 11.2 µM (inactive). Besides, the GI50 in the assay with SK-MEL-2 is 55.1 µM (inactive).

Consider `COc1ccc(/C=C2/C(=O)N(C(=O)c3ccccc3O)N=C2C)cc1OC`, for which the GI50 was 26.7 µM (inactive) in the assay on COLO 205; 16.8 µM (inactive) with HT-29; 0.34 µM (active) with NCI-H460; 0.637 µM (active) in the assay with NCI-H226; 2.44 µM (inactive) in the assay on OVCAR-4; 0.326 µM (active) in the assay on HOP-92. Also, the GI50 with A498 is 0.121 µM (active); with RXF 393 it was 0.0214 µM (active); with MDA-MB-231, > 100 µM (inactive); in the assay on MDA-N, 0.489 µM (active); in the assay with TK-10 it was 10.8 µM (inactive); in the assay on HCT-15, 0.64 µM. For the same compound, the GI50 with SF-295 is 0.365 µM (active); in the assay with HL-60, 0.687 µM (active); in the assay with NCI-H23 it was 0.248 µM (active); in the assay on OVCAR-3, 0.374 µM (active); in the assay with OVCAR-5, 3.9 µM (inactive); in the assay with MOLT-4, 21.2 µM (inactive). Besides, the GI50 in the assay with SK-MEL-2 was 0.605 µM (active).

For the compound `CC(NC(=O)C(Cc1ccc(OC(=O)c2ccccc2)cc1)NC(=O)OC(C)(C)C)C(=O)NCC(=O)NC(Cc1ccccc1)C(=O)NN` (centres undefined), the GI50 in the assay with COLO 205 is 23.8 µM (inactive); with HT-29, 31 µM (inactive); in the assay with NCI-H460, 49.2 µM (inactive); in the assay on NCI-H226, > 100 µM (inactive); in the assay on OVCAR-4, 96.8 µM (inactive); in the assay on HOP-92, 98.2 µM (inactive). The GI50 is 15 µM (inactive) in the assay with A498; 34.8 µM (inactive) with RXF 393; 20 µM (inactive) in the assay on K562; 37.9 µM (inactive) in the assay with MDA-MB-231; 37.1 µM (inactive) in the assay on MDA-N; 70.3 µM (inactive) with TK-10. The GI50 is more than 100 µM in the assay with HCT-15; 46.9 µM (inactive) with SF-295; 16 µM (inactive) in the assay on HL-60; 74.5 µM (inactive) with NCI-H23; 57.9 µM (inactive) in the assay with OVCAR-3; > 100 µM (inactive) in the assay on OVCAR-5. The GI50 in the assay with MOLT-4 is 17.9 µM (inactive).

In the case of `OCC1OC(NC(=S)NCCC(F)(F)C(F)(F)C(F)(F)C(F)(F)C(F)(F)C(F)(F)F)C(O)C(O)C1O` (centres undefined), the GI50 in the assay with COLO 205 was > 100 µM (inactive); in the assay on HT-29, > 100 µM (inactive); in the assay with NCI-H460 it was > 100 µM (inactive); with OVCAR-4, > 100 µM (inactive); in the assay on HOP-92, 29.2 µM (inactive); in the assay on A498 it was 18.5 µM (inactive). Besides, the GI50 is 75.3 µM (inactive) in the assay with RXF 393; 28.2 µM (inactive) with K562; > 100 µM (inactive) in the assay on MDA-MB-231; > 100 µM (inactive) in the assay with MDA-N; > 100 µM (inactive) in the assay on TK-10; more than 100 µM in the assay with HCT-15. The GI50 in the assay on SF-295 is 80.9 µM (inactive); in the assay on HL-60, > 100 µM (inactive); in the assay on NCI-H23, > 100 µM (inactive); in the assay with OVCAR-3, > 100 µM (inactive); in the assay with OVCAR-5, > 100 µM (inactive); in the assay on MOLT-4, 21.6 µM (inactive). In the assay with SK-MEL-2, the GI50 was > 100 µM (inactive).

Consider `CCN1C(=S)n2cccc2C1CC(=O)c1ccc(Cl)cc1` (centres undefined), for which the GI50 in the assay on HT-29 was 68.7 µM (inactive); in the assay with NCI-H460, 34.7 µM (inactive); with OVCAR-4 it was 93.3 µM (inactive); in the assay on HOP-92, > 100 µM (inactive); with A498, 43.5 µM (inactive); in the assay on RXF 393, > 100 µM (inactive). The GI50 with K562 is 53.7 µM (inactive); with MDA-MB-231, 59.6 µM (inactive); with MDA-N, 88.5 µM (inactive); in the assay on TK-10, 95.9 µM (inactive); in the assay with HCT-15, 51.8 µM; in the assay on SF-295 it was 63.7 µM (inactive). Moreover, the GI50 with HL-60 is 26.7 µM (inactive); in the assay with NCI-H23 it was 13 µM (inactive); with OVCAR-3 it was 74 µM (inactive); in the assay on OVCAR-5, 87.9 µM (inactive); in the assay with MOLT-4, 22.8 µM (inactive); with SK-MEL-2 it was 58.2 µM (inactive).

Regarding `N#CCC1C2CC3C(C2=O)C13` (centres undefined), the GI50 in the assay with COLO 205, in the assay on HT-29, in the assay on NCI-H460, with NCI-H226, in the assay with OVCAR-4 and with HOP-92 was > 100 µM (inactive) throughout. Besides, the GI50 with A498, with RXF 393, in the assay with K562, with MDA-MB-231, in the assay on MDA-N and with TK-10 was > 100 µM (inactive) in each case. In addition, the GI50 is more than 100 µM in the assay with HCT-15; > 100 µM (inactive) in the assay with SF-295; > 100 µM (inactive) in the assay on NCI-H23; > 100 µM (inactive) with OVCAR-3; > 100 µM (inactive) with OVCAR-5; > 100 µM (inactive) with MOLT-4. The GI50 in the assay with SK-MEL-2 is > 100 µM (inactive).

For `Cc1ccc2[nH]c3[nH]c(=S)[nH]c(=O)c3c2c1`, the GI50 in the assay with COLO 205, in the assay on HT-29, in the assay on NCI-H226, with HOP-92, with A498 and with RXF 393 was > 100 µM (inactive) each time. In addition, the GI50 with K562 was 96.4 µM (inactive); in the assay with MDA-MB-231, > 100 µM (inactive); with MDA-N, > 100 µM (inactive); in the assay with TK-10 it was > 100 µM (inactive); with HCT-15, more than 100 µM; with SF-295, > 100 µM (inactive). The GI50 in the assay with HL-60 was > 100 µM (inactive); in the assay with NCI-H23, > 100 µM (inactive); with OVCAR-3 it was 72.9 µM (inactive); in the assay on OVCAR-5, > 100 µM (inactive); with MOLT-4, 97.5 µM (inactive); in the assay on SK-MEL-2, > 100 µM (inactive).

In the case of `Cc1ccc(O)c(-c2cc(-c3cccc(Br)c3)on2)c1`, the GI50 in the assay with COLO 205 is 18.2 µM (inactive); in the assay on HT-29 it was 25.5 µM (inactive); in the assay with NCI-H460, 29.1 µM (inactive); in the assay with OVCAR-4, 11.6 µM (inactive); in the assay with HOP-92, 22.2 µM (inactive); with A498, 68.9 µM (inactive). For the same compound, the GI50 with RXF 393 is 17.3 µM (inactive); with K562, 29.6 µM (inactive); with MDA-MB-231, 30.1 µM (inactive); with MDA-N, 25.6 µM (inactive); with TK-10 it was 21.9 µM (inactive); in the assay on HCT-15, 31.4 µM. The GI50 with SF-295 was 32.4 µM (inactive); in the assay on HL-60, 27 µM (inactive); in the assay with NCI-H23, 37.1 µM (inactive); with OVCAR-3, 19.1 µM (inactive); with OVCAR-5 it was 35.8 µM (inactive); with MOLT-4, 20.8 µM (inactive). In addition, in the assay on SK-MEL-2, the GI50 is 21.5 µM (inactive).
